Patent publication US8476265B2, “Compounds-801” (AstraZeneca AB, priority 2010, dated 2013)

Columns and labels:
[1] = target: T1, human muscarinic acetylcholine M3 receptor (Homo sapiens, UniProt P20309); assay: Muscarinic 3 receptor binding assay ([3H]NMS competition, SPA), single concentration 1 μM; conditions: 1 μM compound; % inhibition specific [3H]-NMS binding
T1 construct: expressed in transfected cells; host or cells: CHO-K1 (Chinese Hamster Ovary) cell membranes
Protocol: The following experimental procedure was used to determine the M3% inhibition at 1 μM of the compounds of Examples 99-175
Muscarinic 3 Receptor Binding Assay
The activity (% inhibition specific binding) of compounds on the M3 receptor is determined by competition binding of [^3H]N-methyl scopolamine (NMS) to CHO-K1 (Chinese Hamster Ovary) cell membranes expressing the human muscarinic acetylcholine M3 receptor (M3-ACh) in a scintillation proximity assay (SPA) format. SPA beads are precoated with membranes and then incubated at 2 mg of beads per well with 1 μM compound of the invention, [^3H]NMS at 0.1 nM, quarter Kd (experimentally determined dissociation constant) and assay buffer (20 mM HEPES pH 7.4 containing 5 mM MgCl2 and 0.1% (w/v) bovine serum albumin). The assay is conducted in a final volume of 200 μL, in the presence of 1% (v/v) dimethyl sulphoxide (DMSO). Total binding of [^3H]NMS is determined in the absence of competing compound and non-specific binding of [^3H]NMS is determined in the presence of 1 μM atropine. The plates are incubated for 16 hours at room temperature and then read on Wallac Microbeta™ using a normalised ^3H protocol. The compound activity at 1 μM, defined as % inhibition specific [^3H]-NMS binding, is determined.

[2] = target: T2, Adrenergic β2 (Homo sapiens, UniProt P07550); assay: Adrenergic β2 mediated cAMP production in H292 cells, single concentration 1 μM; type: cell-based; conditions: cAMP as percentage of the maximum response generated by 1E-07M formoterol; for percent of formoterol maximum response at 1 µM: NCI-H292, 1 μM compound, read-out: β2 % effect @1 uM
T2 construct: Adherent H292 cells are removed from tissue culture flasks by treatment with Accutase™ cell detachment solution; endogenous in cells; host or cells: H292 cells
T2 sequence (P07550 whole entry): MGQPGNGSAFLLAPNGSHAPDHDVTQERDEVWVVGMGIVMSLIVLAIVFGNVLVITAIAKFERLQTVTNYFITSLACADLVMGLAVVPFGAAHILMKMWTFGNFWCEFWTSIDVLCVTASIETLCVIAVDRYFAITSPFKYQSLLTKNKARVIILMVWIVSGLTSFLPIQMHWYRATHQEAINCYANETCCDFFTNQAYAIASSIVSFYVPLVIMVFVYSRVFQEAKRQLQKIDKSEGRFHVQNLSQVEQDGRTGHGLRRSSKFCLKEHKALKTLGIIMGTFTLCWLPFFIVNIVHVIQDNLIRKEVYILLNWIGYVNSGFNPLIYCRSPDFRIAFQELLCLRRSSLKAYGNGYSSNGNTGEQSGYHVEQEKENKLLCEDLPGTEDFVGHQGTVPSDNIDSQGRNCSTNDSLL
Protocol: The following experimental procedure was used to measure the beta-2% effect at 1 μM for the compounds of Examples 99-175. Adrenergic p2 Mediated cAMP Production Cell Preparation
H292 cells are grown in 225 cm2 flasks incubator at 37° C., 5% CO2 in RPMI medium containing 10% (v/v) FBS (foetal bovine serum) and 2 mM L-glutamine.
Compounds are prepared by an initial first dilution into DMSO to give 1 mM stock concentration. This is followed by a 1 in 10 dilution of the stock concentration (10 μl stock compound +90 μl DMSO) to give 0.1 mM compound. A compound addition plate is prepared by making a further 1 in 25 dilution in assay buffer (HBSS solution containing 10 mM HEPES pH7.4 and 5 mM glucose) containing 4% dimethylsulfoxide. The final compound concentration in assay is 1 μM.
Adherent H292 cells are removed from tissue culture flasks by treatment with Accutase™ cell detachment solution for 15 minutes. Flasks are incubated for 15 minutes in a humidified incubator at 37° C., 5% CO2. Detached cells are re-suspended in RPMI media (containing 10% (v/v) FBS and 2 mM L-glutamine) at 0.1×10^6 cells per mL. 10000 cells in 100 μL are added to each well of a tissue-culture-treated 96-well plate and the cells incubated overnight in a humidified incubator at 37° C., 5% CO2. The culture media is removed and cells are washed twice with 100 μL assay buffer and replaced with 50 μL assay buffer (HBSS solution containing 10 mM HEPES pH7.4 and 5 mM glucose). Cells are rested at room temperature for 20 minutes after which time 25 μL of rolipram (1.2 mM made up in assay buffer) is added. Cells are incubated with rolipram for 10 minutes after which time 25 μl test compounds are added and the cells are incubated for 60 minutes at room temperature. The final rolipram concentration in the assay is 300 μM and final vehicle concentration is 1% (v/v) dimethylsulphoxide. The reaction is stopped by removing supernatants, washing once with 100 μL assay buffer and replacing with 50 μL lysis buffer. The cell monolayer is frozen at −80° C. for 30 minutes (or overnight).
AlphaScreen™ cAMP Detection
The concentration of cAMP (cyclic adenosine monophosphate) in the cell lysate is determined using AlphaScreen™ methodology. The frozen cell plate is thawed for 20 minutes on a plate shaker then 10 μL of the cell lysate is transferred to a 96-well white plate. 40 μl of mixed AlphaScreen™ detection beads (containing equal volumes of donor beads (pre-incubated with biotinylated cAMP in the dark for 30 minutes) and acceptor beads is added to each well and the plate incubated at room temperature for 3 hours in the dark. The AlphaScreen™ signal is measured using an EnVision spectrophotometer (Perkin-Elmer Inc.) with the recommended manufacturer's settings. Concentration of cAMP produced per well were calculated with reference to the cAMP standard curve determined in the same experiment and expressed as a percentage of the maximum response generated by 1E-07M formoterol.

T1 sequence (P20309 whole entry): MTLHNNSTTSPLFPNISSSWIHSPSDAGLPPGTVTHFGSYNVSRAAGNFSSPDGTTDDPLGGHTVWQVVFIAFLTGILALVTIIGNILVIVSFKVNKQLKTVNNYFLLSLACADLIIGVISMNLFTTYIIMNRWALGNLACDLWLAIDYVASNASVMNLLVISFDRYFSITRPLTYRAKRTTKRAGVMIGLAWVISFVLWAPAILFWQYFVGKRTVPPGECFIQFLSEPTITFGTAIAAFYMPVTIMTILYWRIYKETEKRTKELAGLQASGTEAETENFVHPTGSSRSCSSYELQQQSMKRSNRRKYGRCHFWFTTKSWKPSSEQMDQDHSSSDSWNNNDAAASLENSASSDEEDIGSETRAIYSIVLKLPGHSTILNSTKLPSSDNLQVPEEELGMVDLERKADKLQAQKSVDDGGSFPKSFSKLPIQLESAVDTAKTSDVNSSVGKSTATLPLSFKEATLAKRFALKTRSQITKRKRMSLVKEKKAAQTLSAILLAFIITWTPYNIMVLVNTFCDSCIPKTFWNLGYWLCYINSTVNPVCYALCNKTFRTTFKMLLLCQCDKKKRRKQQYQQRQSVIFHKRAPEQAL

O=C1COc2c(CCNCCN(C(=O)CCOCCc3cccc(CN4CCC5(CC4)CN(C(=O)[C@H](O)c4cccc(Cl)c4)CCO5)c3)C3CCCCC3)ccc(O)c2N1 [Example 130, (R)-3-(3-((4-(2-(3-Chlorophenyl)-2-hydroxyacetyl)-1-oxa-4,9-diazaspiro[5.5]undecan-9-yl)methyl)phenethoxy)-N-cyclohexyl-N-(2-(2-(5-hydroxy-3-oxo-3,4-dihydro-2H-benzo[b][1,4]oxazin-8-yl)ethylamino)ethyl)propanamide]
inhibition at 1 µM [1]: 99%
percent of formoterol maximum response at 1 µM [2]: 114%

O=C1COc2c(CCNCCN(C(=O)CCOCCc3cccc(CN4CCC5(CC4)CN(C(=O)c4cnc6ccccc6c4)CCO5)c3)C3CCCCC3)ccc(O)c2N1 [Example 99, N-Cyclohexyl-N-(2-(2-(5-hydroxy-3-oxo-3,4-dihydro-2H-benzo[b][1,4]oxazin-8-yl)ethylamino)ethyl)-3-(3-((4-(quinoline-3-carbonyl)-1-oxa-4,9-diazaspiro[5.5]undecan-9-yl)methyl)phenethoxy)propanamide]
inhibition at 1 µM [1]: 99%
percent of formoterol maximum response at 1 µM [2]: 112%

O=C1COc2c(CCNCCN(C(=O)CCOCCc3cccc(CN4CCC5(CC4)CN(C(=O)C46CC7CC(F)(CC(F)(C7)C4)C6)CCO5)c3)C3CCCCC3)ccc(O)c2N1 [Example 143]
M3 % inhibition @1 uM [1]: 101%
β2 % effect @1 uM ([2]; 1 μM compound): 105%

Cc1ccccc1CC(=O)N1CCOC2(CCN(Cc3cccc(CCOCCC(=O)N(CCNCCc4ccc(O)c5c4OCC(=O)N5)C4CCCCC4)c3)CC2)C1 [Example 139, N-Cyclohexyl-N-(2-(2-(5-hydroxy-3-oxo-3,4-dihydro-2H-benzo[b][1,4]oxazin-8-yl)ethylamino)ethyl)-3-(3-((4-(2-o-tolylacetyl)-1-oxa-4,9-diazaspiro[5.5]undecan-9-yl)methyl)phenethoxy)propanamide]
inhibition at 1 µM [1]: 100%
percent of formoterol maximum response at 1 µM [2]: 94%

O=C1COc2c(CCNCCN(C(=O)CCOCCc3cccc(CN4CCC5(CC4)CN(C(=O)c4n[nH]c6ccccc46)CCO5)c3)C3CCCCC3)ccc(O)c2N1 [Example 120, 3-(3-((4-(1H-Indazole-3-carbonyl)-1-oxa-4,9-diazaspiro[5.5]undecan-9-yl)methyl)phenethoxy)-N-cyclohexyl-N-(2-(2-(5-hydroxy-3-oxo-3,4-dihydro-2H-benzo[b][1,4]oxazin-8-yl)ethylamino)ethyl)propanamide]
inhibition at 1 µM [1]: 101%
percent of formoterol maximum response at 1 µM [2]: 97%

Cc1ccc2[nH]c(C(=O)N3CCOC4(CCN(Cc5cccc(CCOCCC(=O)N(CCNCCc6ccc(O)c7c6OCC(=O)N7)C6CCCCC6)c5)CC4)C3)cc2c1 [Example 136, N-Cyclohexyl-N-(2-(2-(5-hydroxy-3-oxo-3,4-dihydro-2H-benzo[b][1,4]oxazin-8-yl)ethylamino)ethyl)-3-(3-((4-(5-methyl-1H-indole-2-carbonyl)-1-oxa-4,9-diazaspiro[5.5]undecan-9-yl)methyl)phenethoxy)propanamide]
inhibition at 1 µM [1]: 99%
percent of formoterol maximum response at 1 µM [2]: 92%

Cc1nc2cc(C(=O)N3CCOC4(CCN(Cc5cccc(CCOCCC(=O)N(CCNCCc6ccc(O)c7c6OCC(=O)N7)C6CCCCC6)c5)CC4)C3)ccc2[nH]1 [Example 117, N-Cyclohexyl-N-(2-(2-(5-hydroxy-3-oxo-3,4-dihydro-2H-benzo[b][1,4]oxazin-8-yl)ethylamino)ethyl)-3-(3-((4-(2-methyl-1H-benzo[d]imidazole-5-carbonyl)-1-oxa-4,9-diazaspiro[5.5]undecan-9-yl)methyl)phenethoxy)propanamide]
inhibition at 1 µM [1]: 99%
percent of formoterol maximum response at 1 µM [2]: 90%

O=C1COc2c(CCNCCN(C(=O)CCOCCc3cccc(CN4CCC5(CC4)CN(C(=O)c4ccc(-n6ccnc6)cc4)CCO5)c3)C3CCCCC3)ccc(O)c2N1 [Example 135, 3-(3-((4-(4-(1H-Imidazol-1-yl)benzoyl)-1-oxa-4,9-diazaspiro[5.5]undecan-9-yl)methyl)phenethoxy)-N-cyclohexyl-N-(2-(2-(5-hydroxy-3-oxo-3,4-dihydro-2H-benzo[b][1,4]oxazin-8-yl)ethylamino)ethyl)propanamide]
inhibition at 1 µM [1]: 66%
percent of formoterol maximum response at 1 µM [2]: 86%

O=C1COc2c(CCNCCN(C(=O)CCOCCc3cccc(CN4CCC5(CC4)CN(C(=O)c4ccc(-n6cccn6)cc4)CCO5)c3)C3CCCCC3)ccc(O)c2N1 [Example 122, 3-(3-((4-(4-(1H-Pyrazol-1-yl)benzoyl)-1-oxa-4,9-diazaspiro[5.5]undecan-9-yl)methyl)phenethoxy)-N-cyclohexyl-N-(2-(2-(5-hydroxy-3-oxo-3,4-dihydro-2H-benzo[b][1,4]oxazin-8-yl)ethylamino)ethyl)propanamide]
inhibition at 1 µM [1]: 84%
percent of formoterol maximum response at 1 µM [2]: 87%

O=C1COc2c(CCNCCN(C(=O)CCOCCc3cccc(CN4CCC5(CC4)CN(C(=O)c4n[nH]cc4Cl)CCO5)c3)C3CCCCC3)ccc(O)c2N1 [Example 133, 3-(3-((4-(4-Chloro-1H-pyrazole-3-carbonyl)-1-oxa-4,9-diazaspiro[5.5]undecan-9-yl)methyl)phenethoxy)-N-cyclohexyl-N-(2-(2-(5-hydroxy-3-oxo-3,4-dihydro-2H-benzo[b][1,4]oxazin-8-yl)ethylamino)ethyl)propanamide]
inhibition at 1 µM [1]: 101%
percent of formoterol maximum response at 1 µM [2]: 83%

Cc1ccccc1C(=O)N1CCOC2(CCN(Cc3cccc(CCOCCC(=O)N(CCNCCc4ccc(O)c5c4OCC(=O)N5)C4CCCCC4)c3)CC2)C1 [Example 158, N-Cyclohexyl-N-(2-(2-(5-hydroxy-3-oxo-3,4-dihydro-2H-benzo[b][1,4]oxazin-8-yl)ethylamino)ethyl)-3-(3-((4-(2-methylbenzoyl)-1-oxa-4,9-diazaspiro[5.5]undecan-9-yl)methyl)phenethoxy)propanamide]
inhibition at 1 µM [1]: 98%
percent of formoterol maximum response at 1 µM [2]: 94%

O=C1COc2c(CCNCCN(C(=O)CCOCCc3cccc(CN4CCC5(CC4)CN(C(=O)Cc4ccccc4F)CCO5)c3)C3CCCCC3)ccc(O)c2N1 [Example 169, N-Cyclohexyl-3-(3-((4-(2-(2-fluorophenyl)acetyl)-1-oxa-4,9-diazaspiro[5.5]undecan-9-yl)methyl)phenethoxy)-N-(2-(2-(5-hydroxy-3-oxo-3,4-dihydro-2H-benzo[b][1,4]oxazin-8-yl)ethylamino)ethyl)propanamide]
inhibition at 1 µM [1]: 101%
percent of formoterol maximum response at 1 µM [2]: 102%

O=C1COc2c(CCNCCN(C(=O)CCOCCc3cccc(CN4CCC5(CC4)CN(C(=O)CCc4nc6ccccc6[nH]4)CCO5)c3)C3CCCCC3)ccc(O)c2N1 [Example 103, 3-(3-((4-(3-(1H-Benzo[d]imidazol-2-yl)propanoyl)-1-oxa-4,9-diazaspiro[5.5]undecan-9-yl)methyl)phenethoxy)-N-cyclohexyl-N-(2-(2-(5-hydroxy-3-oxo-3,4-dihydro-2H-benzo[b][1,4]oxazin-8-yl)ethylamino)ethyl)propanamide]
inhibition at 1 µM [1]: 90%
percent of formoterol maximum response at 1 µM [2]: 109%
